Measurements published in patent US11806361B2, “Treatments of non-alcoholic steatohepatitis (NASH)” (DEUTSCHES KREBSFORSCHUNGSZENTRUM STIFTUNG DES ÖFFENTLICHEN …, priority 2016, dated 2023).

Assays:
CD-HFD fed C57BL/6 mice = test: CD-HFD mouse model of NASH and NASH-triggered HCC; format: in vivo; settings: for development of NASH: MRI analysis and histological analysis; for Histopathological signs of NASH (e.g. ballooned hepatocytes): H/E stains of liver; for Aberrant hepatic lipid metabolism and b-Oxidation: Real time PCR analysis for gene expression in the liver
Source text: Indeed that approach enabled the inventors to study a chronic model of NASH in the context of metabolic syndrome, triggering subsequent HCC in C57BL/6 mice, in the absence of chemical carcinogens or genetic mutations predisposing to NASH or HCC development. CD-HFD fed mice display several long term pathologies observed in human patients: abdominal obesity, overweight, insulin resistance, liver damage, production of reactive oxygen species (ROS) fibrosis, hepatic mitochondrial damage, dyslipidemia and NASH. Moreover, HCC developed 12 months post CD-HFD start and resembled histologically, genetically and morphologically human HCC (FIG. 1). Cholesterol Diet—High Fat Diet (CD-HFD) in mice recapitulates human NASH and NASH triggered HCC pathology. (FIG. 1A) Weight development in male normal diet fed (ND) and CD-HFD fed C57BL/6 mice. (FIG. 1B) Intraperitoneal Glucose tolerance test performed with 6-month-old male ND and CD-HFD C57BL/6 mice. (FIG. 1C) Quantification of serum aminotransferase (ALT) levels in male C57BL/6 mice reflecting liver damage. (FIG. 1D) MRI analyses on livers of 6-month-old ND and CD-HFD C57BL/6 mice. T1 (fast low-angle shot [FLASH]) OUT phase: dark color indicative of steatosis. T2 TurboRare visualizes increase in subcutaneous and abdominal fat and hepatic lipid accumulation (bright regions) in CD-HFD mice. (FIG. 1E) Macroscopy and histopathology of livers from 12-month-old ND, HFD, or CD-HFD C57BL/6 mice, with arrowhead pointing towards HCC. Scale bar: 5 mm. T: Tumor. NT: Non-Tumor. ***P=0.001. (F) Representative H&E staining of 12-month-old CD-HFD C57BL/6 livers and human livers illustrating NASH. Accumulation of Mallory Denk bodies (red arrowhead), ballooned hepatocytes (brown arrowhead), and satellitosis (blue arrowhead) is similar to human NASH pathology (right image). Scale bar: 50 μm.
(§1) Aspirin/Clopidrogrel (Asp/Clop), a thrombocyte aggregation inhibitor, treatment reduces the capacity of platelets aggregate and prevents NASH and aberrant hepatic lipid metabolism (FIG. 5). (FIG. 5A) Asprin/Clopidrogrel treatment reduces the number of platelets in the liver (White bars: ND; Black bars: CD-HFD; Green bars: CD-HFD treated with Asp/Clop). […] (FIG. 5E) Liver to body weight ratio is rescued upon Asp/Clop treatment at 12 months of age. (FIG. 5F) Liver damage as measured by ALT levels in serum is prevented in Asp/Clop treated mice. (FIG. 5G) Triglycerides are reduced in serum of Asp/Clop treated mice at 12 months of age. (FIG. 5H) Serum cholesterol is reduced in Asp/Clop treated mice at 6 and 12 months, (FIG. 5I) Aberrant hepatic lipid metabolism and b-Oxidation is rescued in Asp/Clop treated mice—as analyzed by Real time PCR analysis for gene expression in the liver. Stars indicate significance. […] (FIG. 5J) Lipid deposition in the liver indicated by a dark staining in the T1 (FLASH) OUT phase is not detected—as in the CD-HFD. Still at the same time abdominal and subcutaneous fat are visible in Asp/Clop treated mice. (FIG. 5K) Histopathological signs of NASH (e.g. ballooned hepatocytes—see also stars) are absent in Asp/Clop treated mice.

platelets = test: ex vivo activation / aggregation assay on platelets taken from peripheral blood; format: cell-based; settings: platelets taken from peripheral blood of treated CD-HFD mice
Source text: By using different dilution curves of CRP or Thr a reproducible and consistent analysis of the platelet-response rate was visible.
as §1

CC1=C(CC(=O)O)c2cc(F)ccc2/C1=C\c1ccc([S+](C)[O-])cc1 (centres unmarked) [sulindac, Sulindac]
Liver damage as measured by ALT levels in serum (CD-HFD fed C57BL/6 mice; CD-HFD fed mice): not prevented
development of obesity (CD-HFD fed C57BL/6 mice; CD-HFD fed mice): do develop obesity
insulin resistance (intraperitoneal glucose tolerance test) (CD-HFD fed C57BL/6 mice; CD-HFD fed mice): insulin resistant as CD-HFD fed mice
development of NASH (CD-HFD fed C57BL/6 mice; CD-HFD fed mice): does not prevent the development of NASH
Histopathological signs of NASH (e.g. ballooned hepatocytes) (CD-HFD fed C57BL/6 mice): present
Lipid deposition in the liver (dark staining in the T1 (FLASH) OUT phase) (CD-HFD fed C57BL/6 mice; MRI): detected
abdominal and subcutaneous fat (CD-HFD fed C57BL/6 mice; MRI): visible
Aberrant hepatic lipid metabolism and b-Oxidation (CD-HFD fed C57BL/6 mice): not rescued
Triglycerides in serum (CD-HFD fed C57BL/6 mice; at 6 or 12 months of age): not significantly reduced
Liver to body weight ratio (CD-HFD fed C57BL/6 mice; at 12 months of age): not rescued

CCCSc1nc(N[C@@H]2C[C@H]2c2ccc(F)c(F)c2)c2nnn([C@@H]3C[C@H](OCCO)[C@@H](O)[C@H]3O)c2n1 [ticagrelor, Ticagrelor]
Activation status of platelets (ex vivo assay) (platelets): significantly reduced
Aggregation capacity status of platelets (ex vivo aggregation assay) (platelets): significantly reduced
Liver damage as measured by ALT levels in serum (CD-HFD fed C57BL/6 mice; CD-HFD fed mice): significantly reduced
development of obesity (CD-HFD fed C57BL/6 mice; CD-HFD fed mice): do develop obesity
number of HCC (HCC incidence) (CD-HFD fed C57BL/6 mice; CD-HFD fed mice): No HCC
development of NASH (CD-HFD fed C57BL/6 mice; CD-HFD fed mice): blocks NASH and HCC development
Histopathological signs of NASH (e.g. ballooned hepatocytes) (CD-HFD fed C57BL/6 mice): not present
Aberrant hepatic lipid metabolism and b-Oxidation (CD-HFD fed C57BL/6 mice): rescued
Serum cholesterol (CD-HFD fed C57BL/6 mice; at 6 and 12 months): significantly reduced
Triglycerides in serum (CD-HFD fed C57BL/6 mice; at 12 months of age): reduced by trend
